Laboratory results: PubChem BioAssay AID1963870 (Molecular Pharmacology Branch, DTP, NCI, 2024)
pIC50: −log10 of the molar value.

System: 292921-168-R-J2-PDC KRAS tumor spheroid viability
Assay: Anticancer human tumor 292921-168-R-J2-PDC patient-derived pancreatic carcinoma cell line growth inhibition [KRAS2]
Conditions: spheroids with HUVEC and MSC; for pIC50: curve of first compound; for viability, T/C: stronger effect = lower value
How it was run: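 KRAS-mutant tumor cells were grown as spheroids with HUVEC endothelial cells and human MSCs as stroma. Targeted agents were tested alone and with KRAS pathway inhibitors. Doses started at or near clinical Cmax, or 10 microM, descending half-log.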

[1] = second compound 0.0316 µM, first compound 0.0316 µM
[2] = second compound 0.1 µM, first compound 0.0316 µM
[3] = second compound 0.316 µM, first compound 0.0316 µM
[4] = second compound 1 µM, first compound 0.0316 µM
[5] = second compound 3.16 µM, first compound 0.0316 µM
[6] = second compound 0.0316 µM, first compound 0.1 µM
[7] = second compound 0.0316 µM, first compound 0.316 µM
[8] = second compound 0.0316 µM, first compound 1 µM
[9] = second compound 0.0316 µM, first compound 3.16 µM
[10] = second compound 0.0316 µM, first compound 10 µM
[11] = second compound 0.1 µM, first compound 0.1 µM
[12] = second compound 0.1 µM, first compound 0.316 µM
[13] = second compound 0.1 µM, first compound 1 µM
[14] = second compound 0.1 µM, first compound 3.16 µM
[15] = second compound 0.1 µM, first compound 10 µM
[16] = second compound 0.316 µM, first compound 0.1 µM
[17] = second compound 0.316 µM, first compound 0.316 µM
[18] = second compound 0.316 µM, first compound 1 µM
[19] = second compound 0.316 µM, first compound 3.16 µM
[20] = second compound 0.316 µM, first compound 10 µM
[21] = second compound 1 µM, first compound 0.1 µM
[22] = second compound 1 µM, first compound 0.316 µM
[23] = second compound 1 µM, first compound 1 µM
[24] = second compound 1 µM, first compound 3.16 µM
[25] = second compound 1 µM, first compound 10 µM
[26] = second compound 3.16 µM, first compound 0.1 µM
[27] = second compound 3.16 µM, first compound 0.316 µM
[28] = second compound 3.16 µM, first compound 1 µM
[29] = second compound 3.16 µM, first compound 3.16 µM
[30] = second compound 3.16 µM, first compound 10 µM
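Also: drug exposure lasted seven days after spheroids formed for three days.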
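For viability, T/C in this document: percent of DMSO vehicle control viability which is 100%.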

## CC(=O)Nc1cccc(-n2c(=O)n(C3CC3)c(=O)c3c(Nc4ccc(I)cc4F)n(C)c(=O)c(C)c32)c1 + C=CC(=O)N1CCN(c2nc(OCC3CCCN3C)nc3c2CCN(c2cccc4cccc(C)c24)C3)CC1CC#N
Second compound 0.0316 µM
  pIC50: 9.55
Second compound 0.1 µM
  pIC50: 9.62
Second compound 0.316 µM
  pIC50: 9.84
Second compound 1 µM
  pIC50: > 10.00
Second compound 3.16 µM
  pIC50: > 10.00
Second compound 0.0316 µM, first compound 0.0001 µM
  viability, T/C: 78.2%
Second compound 0.0316 µM, first compound 0.000316 µM
  viability, T/C: 46.6%
Second compound 0.0316 µM, first compound 0.001 µM
  viability, T/C: 27.2%
Second compound 0.0316 µM, first compound 0.00316 µM
  viability, T/C: 18.6%
Second compound 0.0316 µM, first compound 0.01 µM
  viability, T/C: 11.9%
[1]
  viability, T/C: 8.52%
Second compound 0.1 µM, first compound 0.0001 µM
  viability, T/C: 63.3%
Second compound 0.1 µM, first compound 0.000316 µM
  viability, T/C: 45.9%
Second compound 0.1 µM, first compound 0.001 µM
  viability, T/C: 29.1%
Second compound 0.1 µM, first compound 0.00316 µM
  viability, T/C: 17.6%
Second compound 0.1 µM, first compound 0.01 µM
  viability, T/C: 12.4%
[2]
  viability, T/C: 7.9%
Second compound 0.316 µM, first compound 0.0001 µM
  viability, T/C: 56.5%
Second compound 0.316 µM, first compound 0.000316 µM
  viability, T/C: 36.5%
Second compound 0.316 µM, first compound 0.001 µM
  viability, T/C: 23%
Second compound 0.316 µM, first compound 0.00316 µM
  viability, T/C: 13.5%
Second compound 0.316 µM, first compound 0.01 µM
  viability, T/C: 10.3%
[3]
  viability, T/C: 7.06%
Second compound 1 µM, first compound 0.0001 µM
  viability, T/C: 42.7%
Second compound 1 µM, first compound 0.000316 µM
  viability, T/C: 21.9%
Second compound 1 µM, first compound 0.001 µM
  viability, T/C: 13.3%
Second compound 1 µM, first compound 0.00316 µM
  viability, T/C: 9.17%
Second compound 1 µM, first compound 0.01 µM
  viability, T/C: 6.87%
[4]
  viability, T/C: 5.25%
Second compound 3.16 µM, first compound 0.0001 µM
  viability, T/C: 0.18%
Second compound 3.16 µM, first compound 0.000316 µM
  viability, T/C: 0.2%
Second compound 3.16 µM, first compound 0.001 µM
  viability, T/C: 0.11%
Second compound 3.16 µM, first compound 0.00316 µM
  viability, T/C: 0.27%
Second compound 3.16 µM, first compound 0.01 µM
  viability, T/C: 0.11%
[5]
  viability, T/C: 0.17%

## COC(=O)c1ccc2c(C(=Nc3ccc(N(C)C(=O)CN4CCN(C)CC4)cc3)c3ccccc3)c(O)[nH]c2c1 + C=CC(=O)N1CCN(c2nc(OCC3CCCN3C)nc3c2CCN(c2cccc4cccc(C)c24)C3)CC1CC#N
Second compound 0.0316 µM
  pIC50: > 7.50
Second compound 0.1 µM
  pIC50: > 7.50
Second compound 0.316 µM
  pIC50: > 7.50
Second compound 1 µM
  pIC50: > 7.50
Second compound 3.16 µM
  pIC50: > 7.50
[1]
  viability, T/C: 33%
[6]
  viability, T/C: 26.1%
[7]
  viability, T/C: 16.8%
[8]
  viability, T/C: 10.2%
[9]
  viability, T/C: 3.16%
[10]
  viability, T/C: 0.05%
[2]
  viability, T/C: 26.5%
[11]
  viability, T/C: 22.9%
[12]
  viability, T/C: 15.5%
[13]
  viability, T/C: 9.38%
[14]
  viability, T/C: 5.32%
[15]
  viability, T/C: 0.11%
[3]
  viability, T/C: 23.6%
[16]
  viability, T/C: 19.6%
[17]
  viability, T/C: 13.4%
[18]
  viability, T/C: 7.92%
[19]
  viability, T/C: 2.44%
[20]
  viability, T/C: 0.07%
[4]
  viability, T/C: 16.7%
[21]
  viability, T/C: 16.4%
[22]
  viability, T/C: 9.48%
[23]
  viability, T/C: 6.16%
[24]
  viability, T/C: 0.43%
[25]
  viability, T/C: 0.03%
[5]
  viability, T/C: 0.16%
[26]
  viability, T/C: 0.08%
[27]
  viability, T/C: 0.07%
[28]
  viability, T/C: 0.05%
[29]
  viability, T/C: 0.04%
[30]
  viability, T/C: 0.05%

## COc1cc(Nc2ncc3c(n2)-c2ccc(Cl)cc2C(c2c(F)cccc2OC)=NC3)ccc1C(=O)O + C=CC(=O)N1CCN(c2nc(OCC3CCCN3C)nc3c2CCN(c2cccc4cccc(C)c24)C3)CC1CC#N
Second compound 0.0316 µM
  pIC50: > 7.50
Second compound 0.1 µM
  pIC50: > 7.50
Second compound 0.316 µM
  pIC50: > 7.50
Second compound 1 µM
  pIC50: > 7.50
Second compound 3.16 µM
  pIC50: > 7.50
[1]
  viability, T/C: 28.8%
[6]
  viability, T/C: 25.6%
[7]
  viability, T/C: 28.7%
[8]
  viability, T/C: 29.4%
[9]
  viability, T/C: 26.1%
[10]
  viability, T/C: 17.1%
[2]
  viability, T/C: 24.8%
[11]
  viability, T/C: 25.7%
[12]
  viability, T/C: 26.8%
[13]
  viability, T/C: 27.2%
[14]
  viability, T/C: 23.5%
[15]
  viability, T/C: 15.9%
[3]
  viability, T/C: 18.8%
[16]
  viability, T/C: 17.9%
[17]
  viability, T/C: 23.5%
[18]
  viability, T/C: 23.3%
[19]
  viability, T/C: 21.1%
[20]
  viability, T/C: 14.4%
[4]
  viability, T/C: 11.2%
[21]
  viability, T/C: 10.8%
[22]
  viability, T/C: 14.9%
[23]
  viability, T/C: 15.4%
[24]
  viability, T/C: 14.2%
[25]
  viability, T/C: 10.3%
[5]
  viability, T/C: 0.22%
[26]
  viability, T/C: 0.2%
[27]
  viability, T/C: 0.13%
[28]
  viability, T/C: 1.99%
[29]
  viability, T/C: 0.44%
[30]
  viability, T/C: 0.41%

## COc1cc2nccc(Oc3ccc(NC(=O)C4(C(=O)Nc5ccc(F)cc5)CC4)cc3)c2cc1OC + C=CC(=O)N1CCN(c2nc(OCC3CCCN3C)nc3c2CCN(c2cccc4cccc(C)c24)C3)CC1CC#N
Second compound 0.0316 µM
  pIC50: 5.69
Second compound 0.1 µM
  pIC50: 5.77
Second compound 0.316 µM
  pIC50: 5.88
Second compound 1 µM
  pIC50: > 7.50
Second compound 3.16 µM
  pIC50: > 7.50
[1]
  viability, T/C: 100%
[6]
  viability, T/C: 90.4%
[7]
  viability, T/C: 94.2%
[8]
  viability, T/C: 77.1%
[9]
  viability, T/C: 33.9%
[10]
  viability, T/C: 15.6%
[2]
  viability, T/C: 89.8%
[11]
  viability, T/C: 83.9%
[12]
  viability, T/C: 84.4%
[13]
  viability, T/C: 62.5%
[14]
  viability, T/C: 35.1%
[15]
  viability, T/C: 20.6%
[3]
  viability, T/C: 82%
[16]
  viability, T/C: 83.2%
[17]
  viability, T/C: 82.4%
[18]
  viability, T/C: 55.5%
[19]
  viability, T/C: 29.2%
[20]
  viability, T/C: 18.4%
[4]
  viability, T/C: 45.6%
[21]
  viability, T/C: 39%
[22]
  viability, T/C: 38.2%
[23]
  viability, T/C: 22.9%
[24]
  viability, T/C: 14.7%
[25]
  viability, T/C: 9.84%
[5]
  viability, T/C: 0.34%
[26]
  viability, T/C: 0.83%
[27]
  viability, T/C: 0.26%
[28]
  viability, T/C: 0.12%
[29]
  viability, T/C: 0.1%
[30]
  viability, T/C: 0.15%

## O=C(c1cc(Cc2n[nH]c(=O)c3ccccc23)ccc1F)N1CCN(C(=O)C2CC2)CC1 + C=CC(=O)N1CCN(c2nc(OCC3CCCN3C)nc3c2CCN(c2cccc4cccc(C)c24)C3)CC1CC#N
Second compound 0.0316 µM
  pIC50: 5.25
Second compound 0.1 µM
  pIC50: 5.21
Second compound 0.316 µM
  pIC50: 5.45
Second compound 1 µM
  pIC50: > 7.50
Second compound 3.16 µM
  pIC50: > 7.50
[1]
  viability, T/C: 102%
[6]
  viability, T/C: 101%
[7]
  viability, T/C: 102%
[8]
  viability, T/C: 85.1%
[9]
  viability, T/C: 62%
[10]
  viability, T/C: 38.8%
[2]
  viability, T/C: 88.3%
[11]
  viability, T/C: 68.2%
[12]
  viability, T/C: 84.5%
[13]
  viability, T/C: 75.6%
[14]
  viability, T/C: 68.5%
[15]
  viability, T/C: 36.3%
[3]
  viability, T/C: 50.5%
[16]
  viability, T/C: 56.1%
[17]
  viability, T/C: 55.2%
[18]
  viability, T/C: 62.7%
[19]
  viability, T/C: 50.2%
[20]
  viability, T/C: 30.8%
[4]
  viability, T/C: 42.9%
[21]
  viability, T/C: 43.5%
[22]
  viability, T/C: 38.1%
[23]
  viability, T/C: 34.3%
[24]
  viability, T/C: 43.3%
[25]
  viability, T/C: 19.7%
[5]
  viability, T/C: 0.21%
[26]
  viability, T/C: 0.17%
[27]
  viability, T/C: 0.19%
[28]
  viability, T/C: 0.49%
[29]
  viability, T/C: 0.32%
[30]
  viability, T/C: 0.25%
